# From ChEMBL document CHEMBL4017465 (Bioorg Med Chem Lett, 2017)
# How the values were obtained:
# Cytochrome P450 1A2 = biological target: T1, Cytochrome P450 1A2 (Homo sapiens, UniProt P05177); experiment: Inhibition of recombinant human CYP1A2 expressed in insect cells using EOMCC as substrate pretreated for 10 mins followed by substrate addition measured every minute for 15 mins in presence of NADP+ by fluorescence assay; format: ADME
# T1 sequence (P05177 whole entry): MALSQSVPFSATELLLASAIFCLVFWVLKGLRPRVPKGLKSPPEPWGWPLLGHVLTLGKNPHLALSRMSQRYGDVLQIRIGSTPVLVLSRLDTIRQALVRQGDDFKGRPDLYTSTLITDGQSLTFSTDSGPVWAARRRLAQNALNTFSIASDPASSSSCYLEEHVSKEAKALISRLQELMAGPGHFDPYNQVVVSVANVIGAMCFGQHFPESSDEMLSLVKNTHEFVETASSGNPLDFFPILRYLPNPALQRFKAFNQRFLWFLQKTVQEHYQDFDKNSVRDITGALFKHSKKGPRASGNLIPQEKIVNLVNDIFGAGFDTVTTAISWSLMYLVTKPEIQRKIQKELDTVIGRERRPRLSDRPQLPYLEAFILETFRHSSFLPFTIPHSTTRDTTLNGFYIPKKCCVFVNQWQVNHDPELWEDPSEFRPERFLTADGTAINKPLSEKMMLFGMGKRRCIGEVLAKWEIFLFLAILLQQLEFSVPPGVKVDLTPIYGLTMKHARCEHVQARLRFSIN
# Cytochrome P450 3A4 = Cytochrome P450 3A4 (Homo sapiens, UniProt P08684); experiment: Inhibition of recombinant human CYP3A4 expressed in insect cells using DBOMF as substrate pretreated for 10 mins followed by substrate addition measured every minute for 15 mins in presence of NADP+ by fluorescence assay; format: ADME
# CYP1A2 [1] = biological target: T2, CYP1A2 (Homo sapiens, UniProt P05177); experiment: Inhibition of recombinant human CYP1A2 expressed in insect cells at <10 uM using EOMCC as substrate pretreated for 10 mins followed by substrate addition measured every minute for 15 mins in presence of NADP+ by fluorescence assay relative to control; format: ADME; conditions: probe EOMCC
# T2 sequence (P05177 whole entry): T1 sequence (P05177 whole entry)
# CYP3A4 [2] = biological target: T3, CYP3A4 (Homo sapiens, UniProt P08684); experiment: Inhibition of recombinant human CYP3A4 expressed in insect cells at 100 uM using DBOMF as substrate pretreated for 10 mins followed by substrate addition measured every minute for 15 mins in presence of NADP+ by fluorescence assay relative to control; format: ADME; conditions: probe DBOMF
# CYP1A2 [3] = biological target: T2, CYP1A2; experiment: Inhibition of recombinant human CYP1A2 expressed in insect cells at >1 uM using EOMCC as substrate pretreated for 10 mins followed by substrate addition measured every minute for 15 mins in presence of NADP+ by fluorescence assay relative to control; format: ADME; conditions: probe EOMCC
# CYP1A2 [4] = biological target: T2, CYP1A2; experiment: Inhibition of recombinant human CYP1A2 expressed in insect cells at 1 uM using EOMCC as substrate pretreated for 10 mins followed by substrate addition measured every minute for 15 mins in presence of NADP+ by fluorescence assay relative to control; conditions: probe EOMCC
# CYP3A4 [5] = biological target: T3, CYP3A4; experiment: Inhibition of recombinant human CYP3A4 expressed in insect cells at >= 1 uM using DBOMF as substrate pretreated for 10 mins followed by substrate addition measured every minute for 15 mins in presence of NADP+ by fluorescence assay relative to control; conditions: probe DBOMF
# CYP1A2 [6] = biological target: T2, CYP1A2; experiment: Inhibition of recombinant human CYP1A2 expressed in insect cells at 10 uM using EOMCC as substrate pretreated for 10 mins followed by substrate addition measured every minute for 15 mins in presence of NADP+ by fluorescence assay relative to control; conditions: probe EOMCC
# CYP1A2 [7] = biological target: T2, CYP1A2; experiment: Inhibition of recombinant human CYP1A2 expressed in insect cells at 20 uM using EOMCC as substrate pretreated for 10 mins followed by substrate addition measured every minute for 15 mins in presence of NADP+ by fluorescence assay relative to control; conditions: probe EOMCC
# CYP1A2 [8] = biological target: T2, CYP1A2; experiment: Inhibition of recombinant human CYP1A2 expressed in insect cells at 0.01 uM using EOMCC as substrate pretreated for 10 mins followed by substrate addition measured every minute for 15 mins in presence of NADP+ by fluorescence assay relative to control; conditions: probe EOMCC
# T3 sequence (P08684 whole entry): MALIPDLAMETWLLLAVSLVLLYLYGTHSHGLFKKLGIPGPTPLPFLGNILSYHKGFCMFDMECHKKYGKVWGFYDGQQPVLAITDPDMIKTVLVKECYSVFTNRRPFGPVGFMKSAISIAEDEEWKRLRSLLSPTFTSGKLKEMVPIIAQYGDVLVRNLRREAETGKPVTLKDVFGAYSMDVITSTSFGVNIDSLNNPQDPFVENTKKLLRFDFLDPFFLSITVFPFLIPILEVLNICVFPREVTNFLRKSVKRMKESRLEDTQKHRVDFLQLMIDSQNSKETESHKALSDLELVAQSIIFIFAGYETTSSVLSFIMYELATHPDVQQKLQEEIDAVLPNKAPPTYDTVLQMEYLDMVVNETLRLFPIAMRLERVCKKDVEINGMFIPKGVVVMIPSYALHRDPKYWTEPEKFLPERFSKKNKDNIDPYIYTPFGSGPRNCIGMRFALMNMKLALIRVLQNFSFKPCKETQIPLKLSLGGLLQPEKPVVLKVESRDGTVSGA
# Chain of Cytochrome P450 3A4 (P08684 whole entry): as above
IC50 (Cytochrome P450 1A2) [µM],IC50 (Cytochrome P450 3A4) [µM],inhibition at 0.25 h (CYP1A2 [1]) [%],"inhibition at 0.25 h, 100 µM (CYP3A4 [2]) [%]",SMILES,other results
8.5,13.8,< 50,90,COc1ccc(CNc2c3c(nc4cc(Cl)ccc24)CCCC3)cc1OC,
0.24,9.1,,90,Clc1ccc2c(NCc3ccccn3)c3c(nc2c1)CCCC3,inhibition at 0.25 h (CYP1A2 [3]): > 80%
22.3,,< 50,,COc1ccc(CCNc2c3c(nc4cc(Cl)ccc24)CCCC3)cc1OC,
1.5,,,55,Nc1c2c(nc3ccccc13)CCCC2 [TACRINE],"inhibition at 0.25 h, 1 µM (CYP1A2 [4]): 45%; inhibition at 0.25 h, 10 µM (CYP1A2 [6]): 75%; inhibition at 0.25 h, 20 µM (CYP1A2 [7]): 75%; inhibition at 0.25 h, 0.01 µM (CYP1A2 [8]): 14%"

# The remaining lines, values behind:
SMILES,IC50 (Cytochrome P450 1A2) [µM],IC50 (Cytochrome P450 3A4) [µM],inhibition at 0.25 h (CYP1A2 [1]) [%],"inhibition at 0.25 h, 100 µM (CYP3A4 [2]) [%]",other results
COc1ccc(CNc2c3c(nc4ccccc24)CCCC3)cc1OC,33,3.7,< 50,90,
O=c1cc(-c2ccccc2)oc2c1ccc1ccccc12 [ALPHA-NAPHTHOFLAVONE],,,,,"inhibition at 0.25 h, 1 µM (CYP1A2 [4]): > 80%"
CC(=O)N1CCN(c2ccc(OCC3COC(Cn4ccnc4)(c4ccc(Cl)cc4Cl)O3)cc2)CC1 (configuration not stated) [KETOCONAZOLE],,,,,inhibition at 0.25 h (CYP3A4 [5]): > 85%
